Results on 15 compounds are retold here after patent publication US11052092B2, “N-{[2-(piperidin-1-yl)phenyl](phenyl)methyl}-2-(3-oxo-3,4-dihydro-2H-1,4-benzoxazin-7-yl)acetamide derivatives and related compounds as ROR-gamma modulators for treating autoimmune diseases” (Genfit, priority 2017, dated 2021).

Data set [1] concerns the target T1, RORγt ligand-binding domain (RORγt-LBD) (Homo sapiens, UniProt P51449).
T1 construct: 20 nM recombinantly expressed RORγ-LBD fused to GST
T1 sequence (P51449 269-508 limits assumed): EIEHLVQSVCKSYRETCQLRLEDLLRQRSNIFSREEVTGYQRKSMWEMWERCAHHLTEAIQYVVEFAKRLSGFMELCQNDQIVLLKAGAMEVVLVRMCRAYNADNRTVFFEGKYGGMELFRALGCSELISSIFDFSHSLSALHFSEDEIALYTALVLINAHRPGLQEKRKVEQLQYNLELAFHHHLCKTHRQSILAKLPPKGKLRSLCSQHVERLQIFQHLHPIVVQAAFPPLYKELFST
Nature of the data set: Time-resolved FRET (TR-FRET) RORγt coactivator assay. The note with it: GST-RORγ-LBD, biotinylated RIP140 peptide, 2 hours at room temperature. The text has this: Time-resolved FRET (TR-FRET) RORγt coactivator assay was used to identify RORγ modulator compounds with ligand-dependent coactivator displacement. The assay uses a d2-labeled anti-GST antibody, synthetic N-terminally biotinylated peptide which is derived from nuclear receptor coactivator protein RIP140, and a RORγt ligand-binding domain (RORγt-LBD) that is tagged with glutathione-S-transferase (GST). The influence of compounds on the RORγ-peptide interaction relies on the binding dependent energy transfer from a donor to an acceptor fluorophor attached to the binding partner of interest. […] For reduction of background from compound fluorescence, TR-FRET method makes use of generic fluorophore labels and time resolved detection.
The assays were done in a final volume of 20 μl in a 384 well plate in a CHAPS buffer (2 mM CHAPS; 1 mM DTT, 2 mM EDTA; 0.1% BSA), containing 20 nM recombinantly expressed RORγ-LBD fused to GST, 30 nM N-terminally biotinylated peptide, 1 nM streptavidin-terbium conjugate and 20 nM d2 labeled-anti-GST. Test compounds were diluted using 10 mM stock solution. The range of the final compound concentrations used in this test was from 0.3 nM to 30 μM (logarithmic scale). DMSO content of the samples was kept at 1%. The assay was equilibrated for 2 hours in the dark at room temperature in 384 well plates (Falcon). The signal was detected by an Ultra384 reader (TECAN). […] Compounds that promote coactivator displacement induce a concentration-dependent decrease in time-resolved fluorescent signal. Data were collected and analyzed using GraphPad Prism software (GraphPad Software V5.02, San Diego Calif. USA). IC50 in μM and Emax in % were reported for each compound.
A general note: TR-FRET usually uses a lanthanide donor and a delayed reading to cut background.

The target in another data set is T2, human RORγt (Homo sapiens, UniProt P51449).
T2 construct: the full-length cDNA of human RORγt; expressed in transfected cells; host or cells: COS-7 (monkey kidney)
T2 sequence (P51449 1-497 isoform P51449-2): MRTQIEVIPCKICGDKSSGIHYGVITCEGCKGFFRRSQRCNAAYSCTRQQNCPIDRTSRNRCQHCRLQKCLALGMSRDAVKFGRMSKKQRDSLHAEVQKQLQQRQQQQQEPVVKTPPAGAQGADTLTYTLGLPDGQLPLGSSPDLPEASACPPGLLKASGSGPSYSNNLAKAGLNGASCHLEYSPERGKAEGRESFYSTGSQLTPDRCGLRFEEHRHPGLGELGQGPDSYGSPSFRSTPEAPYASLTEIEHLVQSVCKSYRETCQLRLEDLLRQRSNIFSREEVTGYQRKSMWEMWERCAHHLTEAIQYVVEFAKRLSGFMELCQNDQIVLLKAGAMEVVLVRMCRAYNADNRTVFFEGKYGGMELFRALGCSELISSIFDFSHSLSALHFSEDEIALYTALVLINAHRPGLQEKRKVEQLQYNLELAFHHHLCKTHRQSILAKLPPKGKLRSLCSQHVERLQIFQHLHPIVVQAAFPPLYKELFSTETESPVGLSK
Nature of the data set: RORE Luciferase/RORγt transactivation assay. To be noted: COS-7 cells transfected with human IL-17 promoter luciferase reporter and RORγt plasmid; 20 h with compound; read-out: IC50, RORγt activity inhibition. It is filed as cell-based. A digest of the protocol: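 COS-7 cells were transiently co-transfected with a human IL-17 promoter (RORE/CNS)–luciferase reporter and a RORγt expression plasmid, then seeded at 10000 cells/well in serum-free, phenol red-free DMEM. Compounds were added at 0.3% DMSO final. Luciferase was read with Steady-Glo, and IC50 and Emax were derived.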

Data set [2] deals with Murine EL-4 lymphoma cell line overexpressing human RORγt. Briefly: IL-17 secretion from EL4 murine lymphoma. It is filed as cell-based. The note with it: Mus musculus; human RORγt-transfected EL4 cells, PMA (10 ng/mL) and ionomycin (1 μM), 24 h; read-out: IC50, IL-17 secretion inhibition. How it is done: Murine EL-4 lymphoma cell line overexpressing human RORγt was used in this functional assay to assess compound ability to inhibit IL-17 cytokine secretion.
EL-4 cells are maintained in a standard culture medium RPMI supplemented with 10% fetal calf serum, 1% sodium pyruvate, 1% essential amino acids and 1% antibiotics at 37° C. in a humidified atmosphere of 5% CO02 and 95% air. Culture medium was changed every 2 days. EL4 cells were transfected with a plasmid encoding hRORγt (sequence identical to published sequence NM 001001523). […] Briefly, 1 μg of DNA/1 million cells was served to transfect EL-4 cells. Cell/DNA suspension was transferred into certified cuvette and the electroporation of RORγt plasmid was carried out using appropriate Nucleofector® program.
Cells were seeded in 96 well plates at a density of 150000 cells/I well then treated with compounds of this invention at indicated concentrations and incubated for 24 hours at 37° C. in a humidified atmosphere of 5% C02 and 95% air. EL-4 cells were pretreated with test compounds (RORγ modulators) and stimulated with PMA (10 ng/mL) and ionomycin (1 μM final concentration) in the presence of test compound concentrations for additional 24 h at 37° C. in a humidified atmosphere of 5% C02 and 95% air. Subsequently, supernatants were collected (after centrifugation at 300 g for 10 minutes) to determine the concentrations of IL-17 by HTRF (CisBio, France) or ELISA (R&D Systems Europe) according to the manufacturer's protocols.

In the case of `Cc1ccc(C(NC(=O)Cc2ccc3[nH]c(=O)cc(C)c3c2)c2ccccc2)c(N2CCOCC2)c1` (stereo not drawn) [Cpd. 8, N-{[4-methyl-2-(morpholin-4-yl)phenyl](phenyl)methyl}-2-(4-methyl-2-oxo-1,2-dihydroquinolin-6-yl)acetamide], in data set [1], the IC50 – broadly, the midpoint of a concentration-inhibition curve – is 100 to 1000 nM.

Take `Cc1ccc(C(NC(=O)Cc2ccc3c(c2)C(C)(O)C(=O)N3)c2ccc(C)o2)c(N2CCCCC2)c1` (stereo not drawn) [Cpd. 47, 2-(3-hydroxy-3-methyl-2-oxo-2,3-dihydro-1H-indol-5-yl)-N-{[4-methyl-2-(piperidin-1-yl)phenyl](5-methylfuran-2-yl)methyl}acetamide]: the melting point (usually the temperature of the solid-liquid transition) turned out to be 112 °C. Moreover, the IC50 on human RORγt lay within 10 to 100 nM. In addition, in data set [2], the IC50 lay within 100 to 1000 nM.

As to `Cc1ccc(C(NC(=O)Cc2ccc3[nH]c(C)nc3c2)c2ccccc2)c(N2CCCCC2)c1` (stereo not drawn) [Cpd. 75, 2-(2-methyl-1H-1,3-benzodiazol-5-yl)-N-{[4-methyl-2-(piperidin-1-yl)phenyl](phenyl)methyl}acetamide], the melting point is 137 °C. The IC50 on human RORγt lay within 10 to 100 nM. Also, the IC50 in data set [2] is 100 to 1000 nM.

Turning to `Cc1ccc(C(NC(=O)Cc2ccc3c(CO)c[nH]c3c2)c2ccc(C)o2)c(N2CCCCC2)c1` (stereo not drawn) [Cpd. 88, 2-[3-(hydroxymethyl)-1H-indol-6-yl]-N-{[4-methyl-2-(piperidin-1-yl)phenyl](5-methylfuran-2-yl)methyl}acetamide], the melting point amounted to 92 °C. The IC50 at human RORγt was in the range of 10 to 100 nM. Further, the IC50 in data set [2] was under 100 nM.

Consider `Cc1ccc(C(NC(=O)C2(c3ccc4[nH]cc(CO)c4c3)CC2)c2ccc(C)o2)c(N2CCCCC2)c1` (stereo not drawn) [Cpd. 89, 1-[3-(hydroxymethyl)-1H-indol-5-yl]-N-{[4-methyl-2-(piperidin-1-yl)phenyl](5-methylfuran-2-yl)methyl}cyclopropane-1-carboxamide], for which the melting point was 112 °C. Further, the IC50 on human RORγt was under 10 nM. The IC50 in data set [2] was under 100 nM.

As for `Cc1ccc(C(NC(=O)Cc2ccc3[nH]cc(CN4CCOCC4)c3c2)c2ccc(C)o2)c(N2CCCCC2)c1` (stereo not drawn) [Cpd. 94, N-{[4-methyl-2-(piperidin-1-yl)phenyl](5-methylfuran-2-yl)methyl}-2-[3-(morpholin-4-ylmethyl)-1H-indol-5-yl]acetamide], the melting point turned out to be 100 °C. At human RORγt, the IC50 was in the range of 10 to 100 nM. Moreover, the IC50 in data set [2] is under 100 nM.

Compound `Cc1ccc(C(NC(=O)Cc2ccc3c(ccn3CCC(=O)O)c2)c2ccc(C)o2)c(N2CCCCC2)c1` (stereo not drawn) [Cpd. 97, 3-{5-[({[4-methyl-2-(piperidin-1-yl)phenyl](5-methylfuran-2-yl)methyl}carbamoyl)methyl]-1H-indol-1-yl}propanoic acid] showed a melting point of 95 °C. The IC50 on human RORγt was in the range of 10 to 100 nM. Further, in data set [2], the IC50 lay in the range of 100 to 1000 nM.

`COc1ccc(C(NC(=O)Cc2ccc3c(ccn3CCC(=O)O)c2)c2ccc(C)o2)c(N2CCCCCC2)c1` (stereo not drawn) [Cpd. 111, 3-{5-[({[2-(azepan-1-yl)-4-methoxyphenyl](5-methylfuran-2-yl)methyl}carbamoyl)methyl]-1H-indol-1-yl}propanoic acid]: the melting point was 80 °C. Besides, the IC50 at human RORγt was in the range of 10 to 100 nM. Also, the IC50 in data set [2] lay within 100 to 1000 nM.

For the compound `Cc1ccc(C(NC(=O)Cc2ccc3ccn(C(=O)N4CCOCC4)c3c2)c2ccc(C)o2)c(N2CCCCC2)c1` (stereo not drawn) [Cpd. 114, N-{[4-methyl-2-(piperidin-1-yl)phenyl](5-methylfuran-2-yl)methyl}-2-[1-(morpholine-4-carbonyl)-1H-indol-6-yl]acetamide], the IC50 on human RORγt is 10 to 100 nM; in data set [2], 100 to 1000 nM.

`CNS(=O)(=O)c1c[nH]c2ccc(CC(=O)NC(c3ccc(C)o3)c3ccc(C)cc3N3CCCCC3)cc12` (stereo not drawn) [Cpd. 115, N-{[4-methyl-2-(piperidin-1-yl)phenyl](5-methylfuran-2-yl)methyl}-2-[3-(methylsulfamoyl)-1H-indol-5-yl]acetamide]: the IC50 on human RORγt lay in the range of 10 to 100 nM; in data set [2], 100 to 1000 nM.

For `Cc1ccc(C(NC(=O)Cc2ccc3c(ccn3C(=O)N3CCOCC3)c2)c2ccc(C)o2)c(N2CCCCC2)c1` (stereo not drawn) [Cpd. 116, N-{[4-methyl-2-(piperidin-1-yl)phenyl](5-methylfuran-2-yl)methyl}-2-[1-(morpholine-4-carbonyl)-1H-indol-5-yl]acetamide], the melting point is 88 °C. Besides, the IC50 on human RORγt is 10 to 100 nM. Moreover, the IC50 in data set [2] was under 100 nM.

Take `Cc1ccc(C(NC(=O)Cc2ccc3c(C(=O)CS(C)(=O)=O)c[nH]c3c2)c2ccc(C)o2)c(N2CCCCC2)c1` (stereo not drawn) [Cpd. 117, 2-[3-(2-methanesulfonylacetyl)-1H-indol-6-yl]-N-{[4-methyl-2-(piperidin-1-yl)phenyl](5-methylfuran-2-yl)methyl}acetamide]: the melting point was found to be 85 °C. Moreover, at human RORγt, the IC50 was in the range of 10 to 100 nM. The IC50 in data set [2] lay within 100 to 1000 nM.

The compound `Cc1ccc(C(NC(=O)C2(c3ccc4[nH]cc(CNS(C)(=O)=O)c4c3)CC2)c2ccc(C)o2)c(N2CCCCC2)c1` (stereo not drawn) [Cpd. 119, 1-[3-(methanesulfonamidomethyl)-1H-indol-5-yl]-N-{[4-methyl-2-(piperidin-1-yl)phenyl](5-methylfuran-2-yl)methyl}cyclopropane-1-carboxamide] gave a melting point of 109 °C. The IC50 on human RORγt lay in the range of 10 to 100 nM. Besides, the IC50 in data set [2] was under 100 nM.

Turning to `Cc1ccc(C(NC(=O)Cc2ccc3[nH]cc(C(=O)N4CCOCC4)c3c2)c2ccc(C)o2)c(N2CCCCC2)c1` (stereo not drawn) [Cpd. 120, N-{[4-methyl-2-(piperidin-1-yl)phenyl](5-methylfuran-2-yl)methyl}-2-[3-(morpholine-4-carbonyl)-1H-indol-5-yl]acetamide], the half-maximal inhibitory concentration (IC50) on human RORγt was 10 to 100 nM; in data set [2], under 100 nM.

As for `CC(=O)N1CCc2cc(C3(C(=O)NC(c4ccc(C)o4)c4ccc(C)cc4C)CC3)ccc21` (stereo not drawn) [Cpd. 126, 1-(1-acetyl-2,3-dihydro-1H-indol-5-yl)-N-[(2,4-dimethylphenyl)(5-methylfuran-2-yl)methyl]cyclopropane-1-carboxamide], the figures for the IC50 (at human RORγt; in data set [2]) were 10 to 100 nM and 100 to 1000 nM, respectively.
